Read-outs that look alike come from different tables or passages of the source.
Tests used:
hCB1R [1] = target: T1, hCB1R (Homo sapiens, UniProt P21554); test: CB1R bias analysis (operational model, cAMP inhibition vs βarrestin2); assay type: cell-based; conditions: for CB1R bias between cAMP inhibition and βarrestin2 recruitment, ∆∆LogR (cAMP—βarr2), in words: CP55,940 as reference agonist, >0 cAMP bias, <0 βarrestin2 bias
T1 construct: expressed in transfected cells; host or cells: CHO-K1
Description: (§1) Estimates of Ki, EC50, Emin, and Emax were determined using non-linear regression with variable slope (four parameters) (GraphPad, Prism, v. 8.0). […] One-way analysis of variance (ANOVA), followed by Tukey’s post-hoc test, was used for statistical analyses (p < 0.05 determined to be significant); and Bartlett’s test was used to confirm homogeneity of variance (GraphPad).

hCB1R [2] = target: T1, hCB1R; test: biochemical; assay type: binding; conditions: for CB1R [^3H]CP55,940 Emin: bottom of the concentration–response curve, mean ± SEM; for CB1R versus CB2R selectivity, receptor affinity: CB1R vs CB2R [^3H]CP55,940 binding
hCB2R [3] = target: T2, hCB2R (Homo sapiens, UniProt P34972); test: [^3H]CP55,940 competition (radioligand displacement) binding to CB2R; conditions: for CB2R [^3H]CP55,940 Emin: bottom of the concentration–response curve, mean ± SEM
T2 construct: host or cells: CHO-K1 (PathHunter)

hCB1R [4] = target: T1, hCB1R; test: cell-based; assay type: cell-based; conditions: for EC50: CHO hCB1R, 10 µM FSK, 90 min, value with 95% CI, read-out: CB1R cAMP Inhibition EC50; for Emax: read-out: CB1R cAMP Inhibition Emax
hCB2R [5] = target: T2, hCB2R; test: HitHunter inhibition of FSK-stimulated cAMP, CB2R; assay type: cell-based
hCB2R [6] = target: T2, hCB2R; test: CB2R bias analysis (operational model, cAMP inhibition vs βarrestin2); assay type: cell-based; conditions: CP55,940 as reference agonist; >0 cAMP bias, <0 βarrestin2 bias
Description: as §1

hCB2R [7] = target: T2, hCB2R; test: PathHunter βarrestin2 recruitment, CB2R; assay type: cell-based; conditions: for βarrestin2 recruitment to CB2R, activity in words: relative to CP55,940
hCB1R [8] = target: T1, hCB1R; test: cell-based; assay type: cell-based; conditions: for CB1R versus CB2R selectivity, βarrestin2 recruitment: CB1R vs CB2R; for EC50: CHO hCB1R, 90 min, value with 95% CI, read-out: CB1R βarrestin2 recruitment EC50; for Emax: read-out: CB1R βarrestin2 recruitment Emax; for βarrestin2 recruitment to CB1R, activity in words: relative to CP55940
male C57Bl/6 mice [9] = test: Catalepsy, ring holding assay; assay type: in vivo; conditions: 0.1–10 mg/kg i.p.; 5 min; % MPE 60 s
Description: (§2) Adult male C57BL/6 mice aged 6–10 weeks (mean weight 24 ± 0.5 g) were purchased from Charles River Labs (Senneville, QC). Animals were group housed (three per cage) with ad libitum access to food, water, and environmental enrichment and maintained on a 12 h light/dark cycle. Mice were randomly assigned to receive i.p. injections of vehicle (1:1:18 ethanol:emulphor:saline) or 0.1–10 mg/kg SCRA (n ≥ 4 per group). All protocols have been described previously and were in accordance with the guidelines detailed by the Canadian Council on Animal Care and approved by the Animal Research Ethics Board and the Scientific Merit Review Committee for Animal Behaviour at the University of Saskatchewan. […]
(§3) Modified tetrad testing (catalepsy, body temperature, tail flick assay) was conducted according to previously described methods, which are summarized briefly here. […] Catalepsy was assessed in the ring holding assay 5 min following injection with mouse forepaws clasped to a 5 mm ring positioned 5 cm above the surface of the testing space. The length of time the ring was held was recorded (s) to a maximum time of 60 s (i.e. MPE = 60 s). Internal body temperature was measured 15 min after injection. Anti-nociception was determined by assessing tail flick latency 20 min after injection. […]

male C57Bl/6 mice [10] = test: Elevated plus maze (EPM); assay type: in vivo; conditions: 1.0 mg/kg i.p., 30 min after treatment, 5 min trial; for EPM total arm entries: vs vehicle
Description: Adult male C57BL/6 mice aged 6–10 weeks (mean weight 24 ± 0.5 g) were purchased from Charles River Labs (Senneville, QC). Animals were group housed (three per cage) with ad libitum access to food, water, and environmental enrichment and maintained on a 12 h light/dark cycle. Mice were randomly assigned to receive i.p. injections of vehicle (1:1:18 ethanol:emulphor:saline) or 0.1–10 mg/kg SCRA (n ≥ 4 per group). All protocols have been described previously and were in accordance with the guidelines detailed by the Canadian Council on Animal Care and approved by the Animal Research Ethics Board and the Scientific Merit Review Committee for Animal Behaviour at the University of Saskatchewan. The following steps were taken to ensure our study was in keeping with the ARRIVE guidelines: (1) power analyses were conducted to determine the minimum number of animals required for the study; (2) animals were purchased—rather than bred—to limit animal waste; and (3) all assessments of animal behaviour were made by individuals blinded to the treatment group,[57].
EPM was conducted according to methods adapted from Marks et al.. The EPM was built from a plywood base painted blue with blue corrugated plastic floor and walls. The floor of the maze was composed of perpendicular interlocking arms (110 cm long × 10 cm wide) with two arms having 45 cm walls (closed arms) and two arms having no walls and a 0.5 cm edge (open arms), all elevated 45 cm from the ground. Trials began with the mouse in the central zone facing an open arm. Trials lasted 5 min and began 30 min after SCRA treatment. An arm entry was considered to be all four limbs leaving the central zone. Arm entries and the percent time spent in open versus closed arms were recorded by an observer blinded to the treatment group. Less time in the open arms and more time in the closed arms was used as a model of anxiogenic behaviour.

male C57Bl/6 mice [11] = test: Internal body temperature; assay type: in vivo; conditions: 0.1–10 mg/kg i.p.; 15 min
Description: as §2, §3

male C57Bl/6 mice [12] = test: Anti-nociception, tail flick assay; assay type: in vivo; conditions: 0.1–10 mg/kg i.p.; 20 min; 52 °C; % MPE 20 s
Description: as §2, §3

T1 sequence (P21554 whole entry): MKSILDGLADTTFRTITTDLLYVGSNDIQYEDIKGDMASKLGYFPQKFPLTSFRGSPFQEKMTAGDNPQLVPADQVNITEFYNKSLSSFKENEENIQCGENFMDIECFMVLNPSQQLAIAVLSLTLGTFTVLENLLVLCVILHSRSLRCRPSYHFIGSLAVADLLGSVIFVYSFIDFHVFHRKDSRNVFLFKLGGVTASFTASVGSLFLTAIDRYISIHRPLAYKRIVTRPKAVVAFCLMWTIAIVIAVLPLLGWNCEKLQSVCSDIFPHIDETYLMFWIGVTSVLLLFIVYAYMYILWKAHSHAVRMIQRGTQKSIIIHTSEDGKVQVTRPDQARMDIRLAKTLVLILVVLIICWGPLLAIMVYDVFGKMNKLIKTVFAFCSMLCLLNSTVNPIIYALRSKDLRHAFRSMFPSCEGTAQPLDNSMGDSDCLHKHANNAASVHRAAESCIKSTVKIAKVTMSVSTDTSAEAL
T2 sequence (P34972 whole entry): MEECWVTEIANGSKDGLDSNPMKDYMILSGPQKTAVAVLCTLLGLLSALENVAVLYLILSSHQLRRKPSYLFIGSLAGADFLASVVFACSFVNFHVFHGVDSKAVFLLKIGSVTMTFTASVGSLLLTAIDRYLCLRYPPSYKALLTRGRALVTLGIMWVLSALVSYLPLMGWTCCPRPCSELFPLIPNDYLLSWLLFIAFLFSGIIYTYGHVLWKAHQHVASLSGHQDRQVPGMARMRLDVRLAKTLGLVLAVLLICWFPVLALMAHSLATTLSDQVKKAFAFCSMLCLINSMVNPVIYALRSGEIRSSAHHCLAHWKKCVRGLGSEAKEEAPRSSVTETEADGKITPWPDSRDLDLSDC

SMILES | CB1R bias between cAMP inhibition and βarrestin2 recruitment, ∆∆LogR (cAMP—βarr2), in words (hCB1R [1]) | Ki (hCB1R [2]) | CB1R [^3H]CP55,940 Emin (hCB1R [2]) | Affinity for CB2R compared with CP55,940, in words (hCB2R [3]) | Competition of 1.0 nM [^3H]CP55,940 from CB2R, in words (hCB2R [3]) | Ki (hCB2R [3]) | CB2R [^3H]CP55,940 Emin (hCB2R [3]) | EC50 (hCB1R [4]) | Emax (hCB1R [4]) | EC50 (hCB2R [5]) | Emax (hCB2R [5]) | CB2R bias between cAMP inhibition and βarrestin2 recruitment, ∆∆LogR (cAMP—βarr2), in words (hCB2R [6]) | EC50 (hCB2R [7]) | Emax (hCB2R [7]) | βarrestin2 recruitment to CB2R, activity in words (hCB2R [7]) | CB1R versus CB2R selectivity, βarrestin2 recruitment (hCB1R [8]) | EC50 (hCB1R [8]) | Emax (hCB1R [8]) | βarrestin2 recruitment to CB1R, activity in words (hCB1R [8]) | CB1R versus CB2R selectivity, receptor affinity (hCB1R [2]) | other results
CC(C)C(NC(=O)c1nn(Cc2ccccc2F)c2ccccc12)C(N)=O (centres unmarked) [ortho-AB-FUBINACA] | significant bias toward the recruitment of βarrestin2 | 2.7 nM | 16 ± 5.4% | significantly greater affinity | completely displaced | 0.93 nM | 17 ± 1.2% | 3.6 nM | 83 ± 8.4% | 0.06 nM | 110 ± 6.7% | significant bias toward the inhibition of cAMP | 140 nM | 120 ± 3.1% | not different with regard to potency relative to the reference agonist CP55,940, and produced supramaximal EMax responses | more potent for CB2R-dependent recruitment of βarrestin2 than CB1R-dependent recruitment of βarrestin2 | 810 nM | 280 ± 11% | equipotent, but produced supramaximal EMax responses | – | –
CCCC(F)Cn1nc(C(=O)NC(C(N)=O)C(C)C)c2ccccc21 (stereo not drawn) [AB-PINACA N-(2-fluoropentyl) isomer] | did not display a bias | 1.6 nM | 76 ± 6.2 % | significantly less affinity | completely displaced | 270 nM | 2.8 ± 8.1 % | 7.3 nM | 75 ± 7.5% | 10 nM | 91 ± 3.2% | significant bias toward the recruitment of βarrestin2 | 9.4 nM | 140 ± 12% | greater potency and produced supramaximal EMax responses | more potent for CB2R-dependent recruitment of βarrestin2 than CB1R-dependent recruitment of βarrestin2 | 240 nM | 204 ± 10% | greater potency and produced supramaximal EMax responses | greater affinity at CB1R relative to CB2R | Competition of 1.0 nM [^3H]CP55,940 from CB1R, in words (hCB1R [2]): only partially competing; Competition of 1.0 nM [^3H]CP55,940 from CB2R, in words (hCB2R [3]; listed as AB PINACA N-(2-fluoropentyl) isomer): fully competed; CB1R-dependent inhibition of FSK-stimulated cAMP, activity in words (hCB1R [4]; relative to CP55940): partial agonist
COC(=O)[C@@H](NC(=O)c1nn(CCCCF)c2ccccc12)C(C)(C)C [4-fluoro MDMB-BINACA] | significant bias toward the recruitment of βarrestin2 | 99 nM | 52 ± 7.5 % | significantly greater affinity | – | 0.41 nM | 57 ± 11 % | 10 nM | 87 ± 5.6% | 0.56 nM | 95 ± 11% | significant bias toward the recruitment of βarrestin2 | 120 nM | 130 ± 8.2% | greater potency and produced supramaximal EMax responses | – | 88 nM | 240 ± 10% | greater potency and produced supramaximal EMax responses | greater affinity at CB2R relative to CB1R | Observed CB1R bias in cell culture (hCB1R [1]; cAMP inhibition vs βarrestin2): βarrestin2; Catalepsy response (male C57Bl/6 mice [9]): full agonist; EPM time in the central quadrant (male C57Bl/6 mice [10]): majority of their time in the central quadrant immobile; EPM time in the open arms (male C57Bl/6 mice [10]): approximately the same amount of time in the open arm as vehicle-treated mice; EPM total arm entries (male C57Bl/6 mice [10]): reduced total arm entries; Body temperature (hypothermia) response (male C57Bl/6 mice [11]): full agonist; Anti-nociceptive response, tail flick (male C57Bl/6 mice [12]): full agonist
CCCCCc1cc(O)c2c(c1)OC(C)(C)[C@@H]1CCC(C)=C[C@@H]21 [∆^9-THC, ∆^9-tetrahydrocannabinol, reference compound] | – | – | – | – | – | – | 65 ± 7.6 % | – | – | – | 48 ± 3.8% | did not display a bias | – | 58 ± 1.1% | significantly lower efficacy, but similar potency | – | – | – | – | – | EPM open arm entries (male C57Bl/6 mice [10]): increased open arm entry; EPM time in the open arms (male C57Bl/6 mice [10]): greater amount of time spent in the open arms; EPM total arm entries (male C57Bl/6 mice [10]): did not change total arm entries; CB2R-dependent inhibition of FSK-stimulated cAMP, activity in words (hCB2R [5]; relative to CP55,940): significantly lower efficacy
O=C(Oc1cccc2cccnc12)c1nn(CCCCCF)c2ccccc12 [5-fluoro NPB-22] | significant bias toward the recruitment of βarrestin2 | 47 nM | 2.3 ± 7.8% | – | – | 4.3 nM | 34 ± 8.1 % | 53 nM | 96 ± 7% | 3.2 nM | 110 ± 7.6% | did not display a bias | 280 nM | 120 ± 3.7% | not different with regard to potency relative to the reference agonist CP55,940, and produced supramaximal EMax responses | – | 830 nM | 210 ± 12% | equipotent, but produced supramaximal EMax responses | – | –
CCC(Cl)CCn1nc(C(=O)NC(C(N)=O)C(C)C)c2ccccc21 (centres unmarked) [3-chloro AB-PINACA] | did not display a bias | 170 nM | 65 ± 5.1 % | – | – | 52 nM | 84 ± 4.3 % | 0.04 nM | 94 ± 2.8% | 19 nM | 87 ± 15% | significant bias toward the recruitment of βarrestin2 | 8.8 nM | 130 ± 4.5% | greater potency and produced supramaximal EMax responses | more potent for CB2R-dependent recruitment of βarrestin2 than CB1R-dependent recruitment of βarrestin2 | 140 nM | 340 ± 11% | greater potency and produced supramaximal EMax responses | – | CB1R versus CB2R selectivity, cAMP inhibition potency (hCB1R [4]; CB1R vs CB2R): more potent at CB1R relative to CB2R
